Measurements as given in US20250049036A1 (priority 2021, published 2025).

Tests used:
Pyricularia oryzae = test: microbe, parasite or virus in culture; assay type: cell-based; details: 168 h, read-out: control compared to the untreated check
Botrytis cinerea [1] = test: Botrytis cinerea (gray mold) mycelial radial growth on potato dextrose agar; assay type: cell-based; details: 168 h, 22° C., seven days, read-out: control compared to the untreated check
Method: (§1) The compounds were dissolved in 0.3% dimethyl sulfoxide and then added to potato dextrose agar medium just prior to dispensing it into petri dishes. 5 mL medium, with the compound in the desired concentration, was dispensed into 60 mm sterile petri-plates. After solidification, each plate was seeded with a 5 mm size mycelial disc taken from the periphery of an actively growing virulent culture plate. The plates were incubated in growth chambers at 22° C. temperature and 90% relative humidity for seven days and the radial growth was measured and compared to the one of the untreated control.

Botrytis cinerea [2] = test: Botrytis cinerea liq. (BOTRCI) spore growth inhibition in liquid medium, 96-well microtiter plate, OD 405 nm; assay type: cell-based; details: spore suspension in YBA liquid medium, 22° C., 5-6 days, OD at 405 nm, read-out: control compared to the untreated check
Method: Yeast bacterial peptone and sodium acetate (YBA) liquid medium containing a BOTRCI (10^4 spores/ml) spore suspension was prepared. For the inhibition assay, each test compound was solved in dimethyl sulfoxide. 100 μl of the test compound in media-solution was added to a 96-well microtiter plate, consequently, the same volume (100 μl) of spore suspension was added to the well making the final test concentrations and the plate was incubated at 22° C. for 5-6 days. The growth inhibition was evaluated by measuring the OD at 405 nm. Percent inhibition was calculated with the below formula:
Where T=treatment, C=control, and B=blank

Parastagonospora nodorum = Parastagonospora nodorum (PARANO) spore growth inhibition in liquid medium, 96-well microtiter plate, OD 600; assay type: cell-based; details: spore suspension in PDB liquid medium, 18° C., 5-6 days, OD at 600, read-out: control compared to the untreated check
Summary of the method: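 Read-out is percent growth inhibition from OD at 600 after 5-6 days at 18° C. Compounds, dissolved in DMSO, were diluted in potato dextrose broth and combined in equal volume with a 10^5 spores/ml suspension of PARANO.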

Phytophthora infestans = test: microbe, parasite or virus in culture; assay type: cell-based; details: 168 h, read-out: control compared to the untreated check
Botrytis cinerea [3] = test: Botrytis cinerea test on tomato, preventive, greenhouse; assay type: in vivo; details: preventive spray on bean/chili plants (heading: tomato), inoculated one day after treatment, read-out: control (efficacy, disease severity) compared to the untreated check
Phakopsora pachyrhizi = Phakopsora pachyrhizi test on soybean, preventive, greenhouse; assay type: in vivo; details: preventive spray on soybean, inoculated one day after treatment, read-out: control (efficacy, disease severity) compared to the untreated check
Summary of the method: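 Preventive protocol: plants inoculated with a 2×10^5 P. pachyrhizi conidial suspension one day after spray application at the stated rate, then incubated at 22-24 °C and 80-90% RH. Compound was applied from 2% DMSO/acetone diluted in emulsified water.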

Colletotrichum capsici = Colletotrichum capsici (anthracnose) mycelial radial growth on potato dextrose agar; assay type: cell-based; details: Colletotrichum truncatum, 168 h, 25° C., seven days, read-out: control compared to the untreated check
Method: as §1, with “25°” for “22°”, “60%” for “90%”

CC(C)(COCc1ccccc1F)NC(=O)c1cnc2ccsc2c1 [Compound 189]
≥ 70%: inhibition of growth at 300 ppm (Pyricularia oryzae) | inhibition of growth at 300 ppm (Botrytis cinerea [1]) | inhibition of growth at 300 ppm (Botrytis cinerea [2])

C=C(C)CC(C)(COc1ccccc1F)NC(=O)c1cnc2ccsc2c1 (stereo not shown) [Compound 159, N-(1-(2-fluorophenoxy)-2,4-dimethylpent-4-en-2-yl)thieno[3,2-b] pyridine-6-carboxamide]
≥ 70%: inhibition of growth at 300 ppm (Botrytis cinerea [1]) | inhibition of growth at 300 ppm (Parastagonospora nodorum)

Cn1ccc2ncc(C(=O)NC(C)(C)Cc3ccccc3)cc21 [Compound 86, 1-methyl-N-(2-methyl-1-phenylpropan-2-yl)-1H-pyrrolo[3,2-b] pyridine-6-carboxamide]
≥ 70%: inhibition of growth at 300 ppm (Phytophthora infestans) | inhibition of growth at 300 ppm (Parastagonospora nodorum) | pest or weed control at 500 ppm (Botrytis cinerea [3]) | pest or weed control at 500 ppm (Phakopsora pachyrhizi)

CC(C)(COc1ccc(C#N)cn1)NC(=O)c1cnc2c(c1)CCC2 [Compound 223, N-(1-((5-cyanopyridin-2-yl)oxy)-2-methylpropan-2-yl)-6,7-dihydro-5H-cyclopenta[b]pyridine-3-carboxamide]
≥ 70%: inhibition of growth at 300 ppm (Phytophthora infestans) | inhibition of growth at 300 ppm (Parastagonospora nodorum) | inhibition of growth at 300 ppm (Botrytis cinerea [2])

CC(C)(COC(=O)c1ccccc1C(F)(F)F)NC(=O)c1cnc2c(c1)CCC2 [Compound 148, 2-(6,7-dihydro-5H-cyclopenta[b]pyridine-3-carboxamido)-2-methylpropyl 2-(trifluoromethyl)benzoate]
≥ 70%: inhibition of growth at 300 ppm (Botrytis cinerea [1]) | inhibition of growth at 300 ppm (Botrytis cinerea [2])

Cn1ccc2cc(C(=O)NC(C)(C)COCc3ccccc3F)cnc21 [Compound 187, N-(1-((2-fluorobenzyl)oxy)-2-methylpropan-2-yl)-1-methyl-1H-pyrrolo[2,3-b]pyridine-5-carboxamide]
≥ 70%: inhibition of growth at 300 ppm (Botrytis cinerea [1]) | inhibition of growth at 300 ppm (Colletotrichum capsici) | inhibition of growth at 300 ppm (Parastagonospora nodorum) | inhibition of growth at 300 ppm (Botrytis cinerea [2])

COc1nc2[nH]ccc2cc1C(=O)NC(C)(Cc1ccccc1)CC(C)C (stereo not shown) [Compound 89, N-(2,4-dimethyl-1-phenylpentan-2-yl)-6-methoxy-1H-pyrrolo[2,3-b]pyridine-5-carboxamide]
≥ 70%: inhibition of growth at 300 ppm (Botrytis cinerea [1]) | inhibition of growth at 300 ppm (Botrytis cinerea [2]) | pest or weed control at 500 ppm (Phakopsora pachyrhizi)

COc1nc2c(cc1C(=O)NC1(c3ccccc3)CC1)CCC2 [Compound 252, 2-methoxy-N-(1-phenylcyclopropyl)-6,7-dihydro-5H-cyclopenta[b]pyridine-3-carboxamide]
≥ 70%: inhibition of growth at 300 ppm (Botrytis cinerea [1]) | inhibition of growth at 300 ppm (Colletotrichum capsici) | inhibition of growth at 300 ppm (Phytophthora infestans) | inhibition of growth at 300 ppm (Parastagonospora nodorum) | inhibition of growth at 300 ppm (Botrytis cinerea [2])

Cn1ccc2cc(C(=O)NC3(C)Cc4ccccc4C3)cnc21 [Compound 78, 1-methyl-N-(2-methyl-2,3-dihydro-1H-inden-2-yl)-1H-pyrrolo[2,3-b] pyridine-5-carboxamide]
≥ 70%: inhibition of growth at 300 ppm (Botrytis cinerea [1]) | inhibition of growth at 300 ppm (Parastagonospora nodorum) | inhibition of growth at 300 ppm (Botrytis cinerea [2])

Cc1ccccc1C(=O)OCC(C)(C)NC(=O)c1cnc2c(c1)CCC2 [Compound 149, 2-(6,7-dihydro-5H-cyclopenta[b]pyridine-3-carboxamido)-2-methylpropyl 2-methylbenzoate]
≥ 70%: inhibition of growth at 300 ppm (Botrytis cinerea [1]) | inhibition of growth at 300 ppm (Parastagonospora nodorum) | inhibition of growth at 300 ppm (Botrytis cinerea [2])

Cc1cc2cc(C(=O)NC(C)(C)C(C)(C)c3ccccc3)cnc2n1C [Compound 100, N-(2,3-dimethyl-3-phenylbutan-2-yl)-1,2-dimethyl-1H-pyrrolo[2,3-b]pyridine-5-carboxamide]
≥ 70%: inhibition of growth at 300 ppm (Pyricularia oryzae) | inhibition of growth at 300 ppm (Botrytis cinerea [1]) | inhibition of growth at 300 ppm (Parastagonospora nodorum) | inhibition of growth at 300 ppm (Botrytis cinerea [2]) | pest or weed control at 500 ppm (Botrytis cinerea [3])

CC(C)(COc1ccccn1)NC(=O)c1cnc2c(c1)CCC2 [Compound 202, N-(2-methyl-1-(pyridin-2-yloxy)propan-2-yl)-6,7-dihydro-5H-cyclopenta[b]pyridine-3-carboxamide]
≥ 70%: inhibition of growth at 300 ppm (Phytophthora infestans) | inhibition of growth at 300 ppm (Botrytis cinerea [2])

Cn1ccc2cc(C(=O)NC(C)(C)COc3ccc(F)cn3)cnc21 [Compound 230, N-(1-((5-fluoropyridin-2-yl)oxy)-2-methylpropan-2-yl)-1-methyl-1H-pyrrolo[2,3-b]pyridine-5-carboxamide]
≥ 70%: inhibition of growth at 300 ppm (Colletotrichum capsici) | inhibition of growth at 300 ppm (Phytophthora infestans) | inhibition of growth at 300 ppm (Parastagonospora nodorum) | inhibition of growth at 300 ppm (Botrytis cinerea [2])

CN1CCOc2cc(C(=O)NC(C)(C)Cc3ccccc3)cnc21 [Compound 82, 4-methyl-N-(2-methyl-1-phenylpropan-2-yl)-3,4-dihydro-2H-pyrido[3,2-b] [1,4]oxazine-7-carboxamide]
≥ 70%: inhibition of growth at 300 ppm (Botrytis cinerea [1]) | inhibition of growth at 300 ppm (Parastagonospora nodorum) | inhibition of growth at 300 ppm (Botrytis cinerea [2])

CC(C)CC(C)(Cc1ccccc1)NC(=O)c1cnc2c(c1)c(C1CC1)cn2C (stereo not shown) [Compound 55, 3-cyclopropyl-N-(2,4-dimethyl-1-phenylpentan-2-yl)-1-methyl-1H-pyrrolo[2,3-b]pyridine-5-carboxamide]
≥ 70%: inhibition of growth at 300 ppm (Botrytis cinerea [1]) | inhibition of growth at 300 ppm (Botrytis cinerea [2]) | pest or weed control at 500 ppm (Botrytis cinerea [3])

CC(C)CC(C)(Cc1ccccc1)NC(=O)c1cnc2[nH]c(=O)oc2c1 (stereo not shown) [Compound 98, N-(2,4-dimethyl-1-phenylpentan-2-yl)-2-oxo-2,3-dihydrooxazolo[4,5-b] pyridine-6-carboxamide]
≥ 70%: inhibition of growth at 300 ppm (Pyricularia oryzae) | inhibition of growth at 300 ppm (Botrytis cinerea [1]) | inhibition of growth at 300 ppm (Phytophthora infestans) | inhibition of growth at 300 ppm (Botrytis cinerea [2]) | pest or weed control at 500 ppm (Botrytis cinerea [3])

Cn1cc(Br)c2cc(C(=O)NC(C)(C)COCc3ccccc3F)cnc21 [Compound 194, 3-bromo-N-(1-((2-fluorobenzyl)oxy)-2-methylpropan-2-yl)-1-methyl-1H-pyrrolo[2,3-b]pyridine-5-carboxamide]
≥ 70%: inhibition of growth at 300 ppm (Botrytis cinerea [1]) | inhibition of growth at 300 ppm (Botrytis cinerea [2])

COc1ccccc1CC(C)(C)NC(=O)c1cnc2c(c1)c(F)cn2C [Compound 72, 3-fluoro-N-(1-(2-methoxyphenyl)-2-methylpropan-2-yl)-1-methyl-1H-pyrrolo[2,3-b]pyridine-5-carboxamide]
≥ 70%: inhibition of growth at 300 ppm (Botrytis cinerea [1]) | inhibition of growth at 300 ppm (Botrytis cinerea [2])

CC(C)(C#N)NC(=O)c1cnc2ccsc2c1 [Compound 106, N-(2-cyanopropan-2-yl)thieno[3,2-b] pyridine-6-carboxamide]
≥ 70%: inhibition of growth at 300 ppm (Botrytis cinerea [1]) | inhibition of growth at 300 ppm (Parastagonospora nodorum) | inhibition of growth at 300 ppm (Botrytis cinerea [2]) | pest or weed control at 500 ppm (Botrytis cinerea [3]) | pest or weed control at 500 ppm (Phakopsora pachyrhizi)

CON(C(=O)c1cc2c(nc1Cl)CCC2)C(C)Cc1ccccc1F (stereo not shown) [Compound 254, 2-chloro-N-(1-(2-fluorophenyl)propan-2-yl)-N-methoxy-6,7-dihydro-5H-cyclopenta[b]pyridine-3-carboxamide]
≥ 70%: inhibition of growth at 300 ppm (Pyricularia oryzae) | inhibition of growth at 300 ppm (Botrytis cinerea [1]) | inhibition of growth at 300 ppm (Parastagonospora nodorum) | inhibition of growth at 300 ppm (Botrytis cinerea [2])

CC(C)(COCc1ccccc1F)NC(=O)c1cnc2c(c1)CCC2 [Compound 190, N-(1-((2-fluorobenzyl)oxy)-2-methylpropan-2-yl)-6,7-dihydro-5H-cyclopenta[b]pyridine-3-carboxamide]
≥ 70%: inhibition of growth at 300 ppm (Botrytis cinerea [1]) | inhibition of growth at 300 ppm (Colletotrichum capsici) | inhibition of growth at 300 ppm (Parastagonospora nodorum) | inhibition of growth at 300 ppm (Botrytis cinerea [2])

CC(C)(Cc1ccccc1)NC(=O)c1cnc2cc[nH]c2c1 [Compound 95, N-(2-methyl-1-phenylpropan-2-yl)-1H-pyrrolo[3,2-b] pyridine-6-carboxamide]
≥ 70%: inhibition of growth at 300 ppm (Phytophthora infestans) | inhibition of growth at 300 ppm (Parastagonospora nodorum) | pest or weed control at 500 ppm (Botrytis cinerea [3]) | pest or weed control at 500 ppm (Phakopsora pachyrhizi)

CC(C)(NC(=O)c1cnc2ccsc2c1)C(O)Cc1ccccc1 (stereo not shown) [Compound 105, N-(3-hydroxy-2-methyl-4-phenylbutan-2-yl)thieno[3,2-b] pyridine-6-carboxamide]
≥ 70%: inhibition of growth at 300 ppm (Botrytis cinerea [1]) | inhibition of growth at 300 ppm (Phytophthora infestans) | inhibition of growth at 300 ppm (Parastagonospora nodorum) | inhibition of growth at 300 ppm (Botrytis cinerea [2])
